These results are taken from US20260317320A1, “C5AR1 ANTAGONISTS AND USES THEREOF” (Vanqua Bio, Inc., priority 2022, published 2026).

The target in assay [1] is T1, complement C5a receptor 1 (C5aR1) (Homo sapiens, UniProt P21730).
T1 construct: β-galactosidase fragment (PathHunter enzyme complementation); host or cells: CHO-K1 (PathHunter CHO-K1 C5aR1 β-arrestin cell line)
T1 sequence (P21730 1-350): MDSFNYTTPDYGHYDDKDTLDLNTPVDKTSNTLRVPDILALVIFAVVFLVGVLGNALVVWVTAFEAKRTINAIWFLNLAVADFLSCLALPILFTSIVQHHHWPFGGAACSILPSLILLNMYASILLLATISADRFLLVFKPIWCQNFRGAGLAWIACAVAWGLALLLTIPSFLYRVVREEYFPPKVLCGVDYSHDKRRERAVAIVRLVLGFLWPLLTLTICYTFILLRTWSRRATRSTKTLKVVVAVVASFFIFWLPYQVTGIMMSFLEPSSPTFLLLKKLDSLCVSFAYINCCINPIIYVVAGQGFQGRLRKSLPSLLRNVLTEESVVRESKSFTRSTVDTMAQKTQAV
The experiment in a line: β-arrestin recruitment via C5aR1 activation in live CHO-K1 cells (PathHunter), antagonist mode. As to conditions: antagonist mode; recombinant hC5a (EC90) as competing natural agonist; live CHO-K1 cells; read-out: [Antagonist] B-arrestin2 recruitment: Average IC50; call rule not given here. In kind it is cell-based. On the procedure:
(§1) Exemplary compounds were evaluated for classical GPCR β-arrestin recruitment via complement C5a receptor 1 (C5aR1) activation in live CHO-K1 cells. This cell line expresses two fragments of the […] protein coupled to β-arrestin and C5aR1. Complementation of the two fragments allows for the assessment of both C5aR1 agonism and antagonism. Recombinant hC5a (EC90) was used as the competing natural agonist against disclosed compounds (more information on the expanded protocol and cell line can be found on the manufacturer's website: PathHunter® CHO-K1 C5aR1 β-arrestin cell line, DiscoverX, Catalog No. 93-0557C2). […] IC50 ranges: A: IC50≤500 nM; B: 500 nM<IC50≤5 uM; C: 5 uM<IC50≤100 uM; D: IC50>100 uM.

Assay [2] concerns the target T1, complement C5a receptor 1 (C5aR1). The experiment in a line: β-arrestin recruitment via C5aR1 activation in live CHO-K1 cells (PathHunter), agonist mode. Format: cell-based. On the procedure: as §1
A general note: Recruitment of arrestin is a read-out of receptor activation apart from second messengers.

Read-outs that look alike come from different tables or passages of the source.

A word on the IC50: it is the point on the concentration scale where inhibition reaches its midpoint. With `Cc1cccc(F)c1N1CCC(c2cc3nccnc3n([C@@H]3CCCc4cccnc43)c2=O)CC1` [40a, (R)-7-(1-(2-Fluoro-6-methylphenyl)piperidin-4-yl)-5-(5,6,7,8-tetrahydroquinolin-8-yl)pyrido[2,3-b]pyrazin-6(5H)-one], in assay [1], the IC50 fell in the range of 5 to 100 µM. For the same compound, the “[Agonist] B-arrestin2 recruitment: Average EC50 (nM)” value (“[Agonist] B-arrestin2 recruitment” below) in assay [2] was “Non-Active”.

Turning to `Cc1cccc(F)c1N1CCC(c2cc3nccnc3n([C@H]3CCCc4cccnc43)c2=O)CC1` [40b, (S)-7-(1-(2-Fluoro-6-methylphenyl)piperidin-4-yl)-5-(5,6,7,8-tetrahydroquinolin-8-yl)pyrido[2,3-b]pyrazin-6(5H)-one], the IC50 in assay [1] was above 100 µM. Further, in assay [2], the “[Agonist] B-arrestin2 recruitment” value was “Non-Active”.

On to `Cc1cccc(F)c1N1CCC(c2cc3nccnc3n([C@@H]3CCCc4nccnc43)c2=O)CC1` [43a, (R)-7-(1-(2-Fluoro-6-methylphenyl)piperidin-4-yl)-5-(5,6,7,8-tetrahydroquinoxalin-5-yl)pyrido[2,3-b]pyrazin-6(5H)-one], for which, in assay [1], the IC50 was 0.5 to 5 µM. The “[Agonist] B-arrestin2 recruitment” value in assay [2] is on record as “Non-Active”.

Consider `Cc1cccc(F)c1N1CCC(c2cc3nccnc3n([C@H]3CCCc4nccnc43)c2=O)CC1` [43b, (S)-7-(1-(2-Fluoro-6-methylphenyl)piperidin-4-yl)-5-(5,6,7,8-tetrahydroquinoxalin-5-yl)pyrido[2,3-b]pyrazin-6(5H)-one], for which the IC50 in assay [1] lay within 0.5 to 5 µM. The “[Agonist] B-arrestin2 recruitment” value in assay [2] is recorded as “Non-Active”.

For the compound `Cc1cccc(F)c1N1CCC(c2cc3nccnc3n([C@@H]3CCCc4ncccc43)c2=O)CC1` [49a, (R)-7-(1-(2-Fluoro-6-methylphenyl)piperidin-4-yl)-5-(5,6,7,8-tetrahydroquinolin-5-yl)pyrido[2,3-b]pyrazin-6(5H)-one], in assay [1], the half-inhibitory concentration (IC50) lay in the range of 5 to 100 µM. Besides, the “[Agonist] B-arrestin2 recruitment” value in assay [2] is listed as “Non-Active”.

On to `Cc1cccc(F)c1N1CCC(c2cc3nccnc3n([C@H]3CCCc4ncccc43)c2=O)CC1` [49b, (S)-7-(1-(2-Fluoro-6-methylphenyl)piperidin-4-yl)-5-(5,6,7,8-tetrahydroquinolin-5-yl)pyrido[2,3-b]pyrazin-6(5H)-one], for which the IC50 in assay [1] fell in the range of 0.5 to 5 µM. For the same compound, the “[Agonist] B-arrestin2 recruitment” value in assay [2] is “Non-Active”.

Regarding `Cc1cccc(F)c1N1CCC(c2cc3nccnc3n([C@@H]3CCCc4ccccc43)c2=O)CC1` [53a, (R)-7-(1-(2-Fluoro-6-methylphenyl)piperidin-4-yl)-5-(1,2,3,4-tetrahydronaphthalen-1-yl)pyrido[2,3-b]pyrazin-6(5H)-one], the IC50 in assay [1] lay within 5 to 100 µM. For the same compound, the “[Agonist] B-arrestin2 recruitment” value in assay [2] was “Non-Active”.

In the case of `Cc1cccc(F)c1N1CCC(c2cc3nccnc3n([C@H]3CCCc4ccccc43)c2=O)CC1` [53b, (S)-7-(1-(2-Fluoro-6-methylphenyl)piperidin-4-yl)-5-(1,2,3,4-tetrahydronaphthalen-1-yl)pyrido[2,3-b]pyrazin-6(5H)-one], the IC50 in assay [1] is 0.5 to 5 µM. In addition, the “[Agonist] B-arrestin2 recruitment” value in assay [2] is reported as “Non-Active”.

With `Cc1cnc2cc(C3CCN(c4c(C)cccc4F)CC3)c(=O)n([C@H]3CCCc4nccnc43)c2n1` [61a, (S)-7-(1-(2-Fluoro-6-methylphenyl)piperidin-4-yl)-3-methyl-5-(5,6,7,8-tetrahydroquinoxalin-5-yl) pyrido[2,3-b]pyrazin-6(5H)-one], in assay [1], the IC50 is 0.5 to 5 µM. For the same compound, the “[Agonist] B-arrestin2 recruitment” value in assay [2] was “Non-Active”.

Regarding `Cc1cnc2cc(C3CCN(c4c(C)cccc4F)CC3)c(=O)n([C@@H]3CCCc4nccnc43)c2n1` [61b, (R)-7-(1-(2-fluoro-6-methylphenyl)piperidin-4-yl)-3-methyl-5-(5,6,7,8-tetrahydroquinoxalin-5-yl)pyrido[2,3-b]pyrazin-6(5H)-one], in assay [1], the 50% inhibitory concentration (IC50) was below 0.5 µM. In assay [2], the “[Agonist] B-arrestin2 recruitment” value was “Non-Active”.

As for `Cc1cnc2cc([C@H]3CC[C@@H](c4c(C)ccnc4F)CC3)c(=O)n(Cc3nccnc3C)c2n1` [135A, 7-((1s,4s)-4-(2-Fluoro-4-methylpyridin-3-yl)cyclohexyl)-3-methyl-5-((3-methylpyrazin-2-yl)methyl)pyrido[2,3-b]pyrazin-6(5H)-one], the IC50 in assay [1] lay in the range of 5 to 100 µM. Moreover, in assay [2] (at 10 μM), the “[Agonist] B-arrestin2 recruitment” value was “Non-Active at 10 μM”.

`Cc1cnc2cc([C@H]3CC[C@H](c4c(C)ccnc4F)CC3)c(=O)n(Cc3nccnc3C)c2n1` [135B, 7-((1r,4r)-4-(2-Fluoro-4-methylpyridin-3-yl)cyclohexyl)-3-methyl-5-((3-methylpyrazin-2-yl)methyl)pyrido[2,3-b]pyrazin-6(5H)-one]: the IC50 in assay [1] lay within 5 to 100 µM. Besides, in assay [2] (at 10 μM), the “[Agonist] B-arrestin2 recruitment” value is given as “Non-Active at 10 μM”.

For `Cc1cnc2cc([C@H]3CC[C@@H](c4c(C)cccc4F)CC3)c(=O)n(Cc3nccnc3C)c2n1` [137A, (S)-7-((1s,4s)-4-(2-Fluoro-6-methylphenyl)cyclohexyl)-3-methyl-5-((3-methylpyrazin-2-yl)methyl)pyrido[2,3-b]pyrazin-6(5H)-one], in assay [1], the IC50 was in the range of 5 to 100 µM. The “[Agonist] B-arrestin2 recruitment” value in assay [2] is “Non-Active”.

For the compound `Cc1cnc2cc([C@H]3CC[C@H](c4c(C)cccc4F)CC3)c(=O)n(Cc3nccnc3C)c2n1` [137B, (R)-7-((1r,4r)-4-(2-Fluoro-6-methylphenyl)cyclohexyl)-3-methyl-5-((3-methylpyrazin-2-yl)methyl)pyrido[2,3-b]pyrazin-6(5H)-one], the IC50 in assay [1] was below 0.5 µM. In assay [2] (at 10 μM), the “[Agonist] B-arrestin2 recruitment” value is “Non-Active at 10 μM”.

Take `Cc1ccc2nc(C3CCN(c4c(C)cccc4F)CC3)c(=O)n(Cc3ncccc3C(F)(F)F)c2c1` [142A, 3-(1-(2-Fluoro-6-methylphenyl)piperidin-4-yl)-7-methyl-1-((3-(trifluoromethyl)pyridin-2-yl)methyl)quinoxalin-2(1H)-one]: the IC50 in assay [1] is above 100 µM. In addition, in assay [2], the “[Agonist] B-arrestin2 recruitment” value is “Non-Active”.

With `Cc1cnc2cc([C@H]3CC[C@H](c4c(C)ccnc4F)CC3)c(=O)n(Cc3nccnc3C(F)(F)F)c2n1` [143A, 7-((1r,4r)-4-(2-Fluoro-4-methylpyridin-3-yl)cyclohexyl)-3-methyl-5-((3-(trifluoromethyl)pyrazin-2-yl)methyl)pyrido[2,3-b]pyrazin-6(5H)-one], the IC50 in assay [1] is below 0.5 µM. In addition, the “[Agonist] B-arrestin2 recruitment” value in assay [2] was “Non-Active”.

For the compound `Cc1cnc2cc([C@H]3CC[C@@H](c4c(C)ccnc4F)CC3)c(=O)n(Cc3nccnc3C(F)(F)F)c2n1` [143B, 7-((1s,4s)-4-(2-Fluoro-4-methylpyridin-3-yl)cyclohexyl)-3-methyl-5-((3-(trifluoromethyl)pyrazin-2-yl)methyl)pyrido[2,3-b]pyrazin-6(5H)-one], in assay [1], the IC50 is 0.5 to 5 µM. Moreover, the “[Agonist] B-arrestin2 recruitment” value in assay [2] was “Non-Active”.

`Cc1ccc2nc(C3CCN(c4c(C)cccc4F)CC3)c(=O)n(Cc3nccnc3C(F)(F)F)c2c1` [144A, 3-(1-(2-Fluoro-6-methylphenyl)piperidin-4-yl)-7-methyl-1-((3-(trifluoromethyl)pyrazin-2-yl)methyl)quinoxalin-2(1H)-one]: in assay [1], the IC50 was above 100 µM. Further, the “[Agonist] B-arrestin2 recruitment” value in assay [2] (at 10 μM) is reported as “Non-Active at 10 μM”.

For the compound `Cc1ccc2c(c1)nc(C1CCN(c3c(C)cccc3F)CC1)c(=O)n2Cc1nccnc1C(F)(F)F` [144B, 3-(1-(2-Fluoro-6-methylphenyl)piperidin-4-yl)-6-methyl-1-((3-(trifluoromethyl)pyrazin-2-yl)methyl)quinoxalin-2(1H)-one], the IC50 in assay [1] was above 100 µM. The “[Agonist] B-arrestin2 recruitment” value in assay [2] (at 10 μM) was “Non-Active at 10 μM”.

For the compound `Cc1cnc2cc([C@H]3CC[C@@H](c4c(C)ccnc4F)CC3)c(=O)n(Cc3nccnc3C(F)F)c2n1` [146A, 5-((3-(Difluoromethyl)pyrazin-2-yl)methyl)-7-((1s,4s)-4-(2-fluoro-4-methylpyridin-3-yl)cyclohexyl)-3-methylpyrido[2,3-b]pyrazin-6(5H)-one], in assay [1], the IC50 was in the range of 5 to 100 µM. For the same compound, the “[Agonist] B-arrestin2 recruitment” value in assay [2] (at 10 μM) is “Non-Active at 10 μM”.

With `Cc1cnc2cc([C@H]3CC[C@H](c4c(C)ccnc4F)CC3)c(=O)n(Cc3nccnc3C(F)F)c2n1` [146B, 5-((3-(Difluoromethyl)pyrazin-2-yl)methyl)-7-((1r,4r)-4-(2-fluoro-4-methylpyridin-3-yl)cyclohexyl)-3-methylpyrido[2,3-b]pyrazin-6(5H)-one], the IC50 in assay [1] lay within 0.5 to 5 µM. Further, in assay [2] (at 10 μM), the “[Agonist] B-arrestin2 recruitment” value is “Non-Active at 10 μM”.

For `Cc1cnc2cc([C@H]3CC[C@@H](c4c(C)ccnc4F)CC3)c(=O)n(Cc3ncccc3C(F)(F)F)c2n1` [147A, 7-((1s,4s)-4-(2-Fluoro-4-methylpyridin-3-yl)cyclohexyl)-3-methyl-5-((3-(trifluoromethyl)pyridin-2-yl)methyl)pyrido[2,3-b]pyrazin-6(5H)-one], the IC50 in assay [1] is below 0.5 µM. Also, the “[Agonist] B-arrestin2 recruitment” value in assay [2] (at 10 μM) is reported as “Non-Active at 10 μM”.
